Test results: BigSolDB 2.1

N[C@@H](C(=O)O)c1ccc(O)cc1
Conditions	solubility (mole fraction)
in DMF, 278.27 K	1.99e-05
in DMF, 283.23 K	2.39e-05
in DMF, 288.18 K	2.67e-05
in DMF, 293.2 K	3.38e-05
in DMF, 298.39 K	4.03e-05
in DMF, 303.18 K	4.93e-05
in DMF, 308.26 K	6e-05
in DMF, 313.2 K	7.04e-05
in DMF, 318.39 K	8.68e-05
in DMF, 323.15 K	0.000102
in ethanol, 278.28 K	9.26e-05
in ethanol, 283.42 K	9.3e-05
in ethanol, 288.18 K	9.34e-05
in ethanol, 293.24 K	9.37e-05
in ethanol, 298.38 K	9.4e-05
in ethanol, 303.17 K	9.42e-05
in ethanol, 308.39 K	9.43e-05
in ethanol, 313.19 K	9.44e-05
in ethanol, 318.37 K	9.45e-05
in ethanol, 323.26 K	9.45e-05
in methanol, 278.17 K	0.00042
in methanol, 283.22 K	0.000421
in methanol, 288.21 K	0.000421
in methanol, 293.28 K	0.000423
in methanol, 298.24 K	0.000424
in methanol, 303.32 K	0.000425
in methanol, 308.2 K	0.000426
in methanol, 313.26 K	0.000427
in methanol, 318.27 K	0.000429
in methanol, 323.25 K	0.00043
in tetrachloromethane, 278.38 K	0.000225
in tetrachloromethane, 283.23 K	0.000227
in tetrachloromethane, 288.38 K	0.000231
in tetrachloromethane, 293.36 K	0.000234
in tetrachloromethane, 298.29 K	0.000239
in tetrachloromethane, 303.21 K	0.000244
in tetrachloromethane, 308.36 K	0.00025
in tetrachloromethane, 313.3 K	0.000258
in tetrachloromethane, 318.24 K	0.000264
in tetrachloromethane, 323.19 K	0.000272
in toluene, 278.28 K	0.000157
in toluene, 283.33 K	0.000164
in toluene, 288.38 K	0.000165
in toluene, 293.32 K	0.000172
in toluene, 298.23 K	0.000175
in toluene, 303.32 K	0.00018
in toluene, 308.39 K	0.000189
in toluene, 313.37 K	0.000195
in toluene, 318.17 K	0.000205
in toluene, 323.27 K	0.000216
in water, 278.27 K	0.0018
in water, 283.25 K	0.00186
in water, 288.37 K	0.00194
in water, 293.17 K	0.00203
in water, 298.26 K	0.00215
in water, 303.29 K	0.00229
in water, 308.26 K	0.00244
in water, 313.28 K	0.00261
in water, 318.17 K	0.00279
in water, 323.21 K	0.00299
